{"source": "patent US11147790B2", "about": "“Treatment of cutaneous disorders” (Verrica Pharmaceuticals Inc., priority 2017, dated 2021)", "assay": "Phase II clinical trial, systemic exposure evaluation (plasma concentration of cantharidin) after topical application to Molluscum contagiosum lesions", "assay_type": "in vivo, human", "protocol": "This example describes pharmacokinetic results from a Phase II clinical trial for the treatment of skin lesion resulting from Molluscum contagiosum. Patients received administrations of the cantharidin composition in Table 9 to Molluscum contagiosum lesions every 21 days for a maximum of 4 sessions or until complete clearance. Blood samples for systemic exposure evaluation were collected on Day 1, prior to the drug application, and 2 (+30 minutes), 6 (+1 hour) and 24 (±3 hours) hours post-application. The average age of the subjects was 7±3.5 years. The average body weight of the subjects was 58±34.6 lb. The average number of lesions per subject was 43.7±24.2.\nThe plasma concentration of cantharidin for all subjects was less than 3.3 ng/ml at all times sampled.", "note": "“And” between values parts separate entries of the source, which are not always exact repeats. Identical values can stand only once."}
{"smiles": "C[C@@]12C(=O)OC(=O)[C@]1(C)[C@H]1CC[C@@H]2O1", "note": "[cantharidin]", "values": [{"measurement": "plasma concentration of cantharidin for all subjects at all times sampled", "setting": "all seventeen subjects, 2, 6 and 24 hours post-application, composition of Table 9, topical", "value": "less than 3.3 ng/ml"}, {"measurement": "Exposure", "setting": "plasma cantharidin per individual subject, cantharidin composition of Table 9 applied topically to Molluscum contagiosum lesions, blood collected Day 1 at 2, 6 and 24 hours post-application, lower limit of quantification 2.5 ng/ml", "value": "<2.5 ng/ml (16×) and 3.3 ng/ml"}, {"measurement": "plasma concentration of cantharidin below the lower limit of quantification", "setting": "subjects as young as 2 years old, having over 100 lesions, having genital lesions, with as many as 2.26 lesions per lb, LLOQ 2.5 ng/ml, only one of seventeen subjects above LLOQ", "value": "< 2.5", "unit": "ng/mL"}]}
